Consider three molecules from US20250382344A1, “Soluble GLP1/GIP/NPY2 Receptor Triple Agonists” (Boehringer Ingelheim International GmH, priority 2024, published 2025).

Data set [1] is described as follows: Mouse PK after intravenous application. It counts as in vivo. The settings on record: plasma, male NMRI mice, intravenous 30-60 nmol/kg, non-compartmental analysis. An outline of the steps: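 Male NMRI mice (30–40 g) dosed 30-60 nmol/kg by tail vein in 50 mM phosphate buffer pH 7.4/3.5% mannitol. Saphenous EDTA blood sampled from conscious animals up to 56 h; plasma peptide quantified by LC-MS. Parameters from non-compartmental analysis of individual profiles.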

The next data set deals with T1, hGIPR (Homo sapiens, UniProt P48546).
T1 construct: expressed in transfected cells; host or cells: CHO CRE-luciferase reporter cells
T1 sequence (P48546 22-466): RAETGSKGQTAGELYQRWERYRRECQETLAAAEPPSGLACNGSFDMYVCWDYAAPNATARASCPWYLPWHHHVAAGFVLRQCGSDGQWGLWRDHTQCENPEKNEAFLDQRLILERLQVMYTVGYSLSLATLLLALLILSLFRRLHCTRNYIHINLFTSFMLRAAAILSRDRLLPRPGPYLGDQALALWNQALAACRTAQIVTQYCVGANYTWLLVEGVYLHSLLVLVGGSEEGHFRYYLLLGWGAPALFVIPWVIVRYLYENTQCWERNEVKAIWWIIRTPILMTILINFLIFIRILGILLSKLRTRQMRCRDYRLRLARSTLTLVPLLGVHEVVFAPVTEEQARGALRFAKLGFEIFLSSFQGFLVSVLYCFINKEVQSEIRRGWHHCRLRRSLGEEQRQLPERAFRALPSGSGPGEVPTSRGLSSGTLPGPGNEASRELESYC
The data set can be described thus: hGIPR CreLuc assay in 0.5% and 100% plasma (CHO CRE-luciferase reporter cells). It is filed as cell-based. Background: Reporter assays use an easily measured gene product as a stand-in for the process of interest.

The next data set relates to Normal NMRI Mice. As to the kind of experiment: Effect on acute food intake in normal NMRI mice. It counts as in vivo. The following applies: male NMRI mice, single subcutaneous dose 100 nmol/kg, 24 hours food intake normalized to vehicle group. The protocol:
Male NMRI mice were obtained from Janvier (Janvier Labs, France) or from Charles River (Charles River Research Models & Services Germany GmbH) at the age of 3 weeks. The animals get a microchip (Datamars, Slim Microchip T-SL) for individual identification after delivery. They were housed with 4 mice per cage under a 12/12 dark-light cycle, light off at 3 p.m. Room temperature was controlled to 21° C.+/−1° C. and humidity 60%+/−20%. Mice had ad libitum access to regular rodent chow (KLIBA Nafag 3040 or Altromin 1324, Brogaarden, Denmark) and tap water.
Latest transfer into the HM2-System of MBRose, Denmark (real-time monitoring system of food- and water intake) of the animals 5 days before study start, to allow acclimatization to experimental conditions. As the animals were uniquely identified with the microchips, each individual animal was identified by its own microchip upon entry and exit from the food channel via antennae. Randomization of the mice for each study group (n=8; age earliest 6 weeks old) was based on food intake (middle of last three days 24 h-interval) and bodyweight directly before start of the study. A vehicle treated (50 mM phosphate buffer pH 7.4 with 3.5% mannitol) group was included in each experiment. To have the same nutrition standard for each animal the food access was locked eight hours before dark phase. One hour before night, the animals were once treated subcutaneously with the test peptide. Food intake was reported hourly for a period of 24 hours.

The next data set has as its target T2, hNPY2R (Homo sapiens, UniProt P49146).
T2 construct: expressed in transfected cells; host or cells: HEK-293 CRE-luciferase reporter cells
T2 sequence (P49146 1-381): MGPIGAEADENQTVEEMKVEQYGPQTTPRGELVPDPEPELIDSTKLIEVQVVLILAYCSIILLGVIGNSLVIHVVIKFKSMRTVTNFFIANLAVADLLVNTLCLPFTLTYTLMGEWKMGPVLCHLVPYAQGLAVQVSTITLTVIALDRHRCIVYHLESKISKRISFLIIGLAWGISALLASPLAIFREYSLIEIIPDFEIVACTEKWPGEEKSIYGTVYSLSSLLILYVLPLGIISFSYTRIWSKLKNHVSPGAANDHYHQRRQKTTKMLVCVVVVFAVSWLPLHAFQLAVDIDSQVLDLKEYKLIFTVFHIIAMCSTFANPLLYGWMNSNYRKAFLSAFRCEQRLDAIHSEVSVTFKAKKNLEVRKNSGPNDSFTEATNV
As to the kind of experiment: hNPY2R CreLuc assay in 0.5% and 100% plasma (HEK-293 CRE-luciferase reporter cells). The settings on record: HEK-293 reporter cells. It is filed as cell-based.

Data set [2] is described as follows: Solubility in 0.1 M phosphate buffer at pH 7. It is filed as physicochemical. The settings on record: 0.1 M phosphate buffer at pH 7, 10 mg/mL final peptide concentration, shaking 2 hours at room temperature, peptides as TFA-salts; measured sample pH 6.5-7.0.
The target of another data set is T3, hGLP1R (Homo sapiens, UniProt P43220).
T3 construct: expressed in transfected cells; host or cells: HEK-293 CRE-luciferase reporter cells
T3 sequence (P43220 24-463): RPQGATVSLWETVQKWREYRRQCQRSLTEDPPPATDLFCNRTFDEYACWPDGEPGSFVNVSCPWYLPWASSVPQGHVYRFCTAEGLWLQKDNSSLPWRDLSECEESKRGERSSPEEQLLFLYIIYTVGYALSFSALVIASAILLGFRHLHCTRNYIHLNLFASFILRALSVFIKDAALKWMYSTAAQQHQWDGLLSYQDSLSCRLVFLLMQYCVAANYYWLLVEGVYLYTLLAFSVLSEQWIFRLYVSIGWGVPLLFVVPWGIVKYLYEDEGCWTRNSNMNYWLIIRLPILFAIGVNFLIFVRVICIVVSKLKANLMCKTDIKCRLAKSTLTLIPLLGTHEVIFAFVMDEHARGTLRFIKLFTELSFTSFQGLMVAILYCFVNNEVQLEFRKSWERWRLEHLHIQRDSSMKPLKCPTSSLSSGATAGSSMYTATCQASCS
The data set can be described thus: hGLP1R CreLuc assay in 0.5% and 100% plasma (HEK-293 CRE-luciferase reporter cells). It counts as cell-based. The following applies: 100% human plasma, HEK-293 reporter cells, read-out: hGLP1R 100% hP.

Setting [3] is: 0.5% human plasma, read-out: hNPY2R 0.5% hP.
Where [4] appears, read: 0.5% human plasma, read-out: hGIPR 0.5% hP.

Each structure is given as a SMILES string. Read-outs that look alike come from different tables or passages of the source.

Broadly, the MRT is the average time that molecules of a dose stay in the body. Broadly, the solubility is the dissolved amount per volume that the medium holds. `CC[C@H](C)[C@H](NC(=O)[C@H](Cc1ccccc1)NC(=O)[C@H](C)NC(=O)C(C)(C)NC(=O)[C@H](CCC(N)=O)NC(=O)[C@H](C)NC(=O)[C@H](CCC(N)=O)NC(=O)[C@H](CCCCN)NC(=O)[C@H](CCC(=O)O)NC(=O)[C@H](CC(C)C)NC(=O)[C@](C)(CC(C)C)NC(=O)[C@@H](NC(=O)[C@H](CO)NC(=O)[C@H](Cc1ccc(O)cc1)NC(=O)[C@H](CC(=O)O)NC(=O)[C@H](CO)NC(=O)[C@@H](NC(=O)[C@H](Cc1ccccc1)NC(=O)[C@@H](NC(=O)CNC(=O)[C@H](CCC(=O)O)NC(=O)C(C)(C)NC(=O)[C@@H](N)Cc1ccc(O)cc1)[C@@H](C)O)[C@@H](C)O)[C@@H](C)CC)C(=O)N[C@@H](CCCNC(=N)N)C(=O)N[C@@H](Cc1c[nH]cn1)C(=O)N[C@@H](CC(C)C)C(=O)N[C@H](C(=O)N[C@@H](CC(N)=O)C(=O)N[C@@H](CCCCNC(=O)[C@@H](N)CCCCNC(=O)CC[C@H](NC(=O)CC[C@H](NC(=O)CC[C@H](NC(=O)CC[C@H](NC(=O)CC[C@H](NC(=O)CC[C@H](NC(=O)CCCCCCCCCCCCCCCCC(=O)O)C(=O)O)C(=O)O)C(=O)O)C(=O)O)C(=O)O)C(=O)O)C(=O)NC(C)(C)C(=O)N[C@H](C(=O)N[C@@H](CCCNC(=N)N)C(=O)N[C@@H](CCC(N)=O)C(=O)N[C@@H](CCCNC(=N)N)C(=O)N[C@@H](Cc1ccc(O)cc1)C(N)=O)[C@@H](C)O)[C@@H](C)CC` [Compound 76, Y-Aib-E-G-T-F-T-S-D-Y-S-I-aMeL-L-E-K-Q-A-Q-Aib-A-F-I-R-H-L-I-N-K(1,3)-Aib-T-R-Q-R-Y-NH2.C18DA-gGlu-gGlu-gGlu-gGlu-gGlu-gGlu-eLys(1,2)] returned an MRT in data set [1] of 6.7 h. Moreover, the EC50 at hGIPR (100% human plasma, read-out: hGIPR 100% hP) turned out to be 0.5 nM; at hNPY2R (setting [3]), 7.2 nM; at hGLP1R, 0.3 nM. For the same molecule, the “Acute Food Intake 24 hours 100 nmol/kg [% CTL]” value in the data set on Normal NMRI Mice is 55 % CTL. The solubility at 2 h in data set [2] was 8900 µg/mL.
In data set [1], `CC[C@H](C)[C@H](NC(=O)[C@H](CC(C)C)NC(=O)[C@H](Cc1c[nH]cn1)NC(=O)[C@H](CCCNC(=N)N)NC(=O)[C@@H](NC(=O)[C@H](Cc1ccccc1)NC(=O)[C@H](C)NC(=O)C(C)(C)NC(=O)[C@H](CCC(N)=O)NC(=O)[C@H](C)NC(=O)[C@H](CCC(N)=O)NC(=O)[C@H](CCCCN)NC(=O)[C@H](CCC(=O)O)NC(=O)[C@H](CC(C)C)NC(=O)C(C)(C)NC(=O)[C@@H](NC(=O)[C@H](CO)NC(=O)[C@H](Cc1ccc(O)cc1)NC(=O)[C@H](CC(=O)O)NC(=O)[C@H](CO)NC(=O)[C@@H](NC(=O)[C@H](Cc1ccccc1)NC(=O)[C@@H](NC(=O)CNC(=O)[C@H](CCC(=O)O)NC(=O)C(C)(C)NC(=O)[C@@H](N)Cc1ccc(O)cc1)[C@@H](C)O)[C@@H](C)O)[C@@H](C)CC)C(C)C)C(=O)N[C@@H](CC(N)=O)C(=O)N[C@@H](CCCCNC(=O)CCCCCNC(=O)CCCCCNC(=O)CC[C@H](NC(=O)CC[C@H](NC(=O)CC[C@H](NC(=O)CC[C@H](NC(=O)CC[C@H](NC(=O)CCCCCCCCCCCCCCCCCCC(=O)O)C(=O)O)C(=O)O)C(=O)O)C(=O)O)C(=O)O)C(=O)NC(C)(C)C(=O)N[C@H](C(=O)N[C@@H](CCCNC(=N)N)C(=O)N[C@@H](CCC(N)=O)C(=O)N[C@@H](CCCNC(=N)N)C(=O)N[C@@H](Cc1ccc(O)cc1)C(N)=O)[C@@H](C)O` [Compound 106, Y-Aib-E-G-T-F-T-S-D-Y-S-I-Aib-L-E-K-Q-A-Q-Aib-A-F-V-R-H-L-I-N-K(1,3)-Aib-T-R-Q-R-Y-NH2.C20DA-gGlu-gGlu-gGlu-gGlu-gGlu-AHX-AHX(1,2)] returned a mean residence time MRT of 12.8 h. In addition, the EC50 amounted to 0.2 nM at hGIPR (setting [4]) and 7.1 nM at hNPY2R (setting [3]). The “Acute Food Intake 24 hours 100 nmol/kg [% CTL]” value with Normal NMRI Mice worked out at 60 % CTL. Also, the solubility at 2 h in data set [2] was found to be 9200 µg/mL.
For the molecule `CC[C@H](C)[C@H](NC(=O)[C@H](CC(C)C)NC(=O)[C@H](Cc1c[nH]cn1)NC(=O)[C@H](CCCNC(=N)N)NC(=O)[C@@H](NC(=O)[C@H](Cc1ccccc1)NC(=O)[C@H](C)NC(=O)C(C)(C)NC(=O)[C@H](CCC(N)=O)NC(=O)[C@H](C)NC(=O)[C@H](CCC(N)=O)NC(=O)[C@H](CCCCN)NC(=O)[C@H](CCC(=O)O)NC(=O)[C@H](CC(C)C)NC(=O)C(C)(C)NC(=O)[C@@H](NC(=O)[C@H](CO)NC(=O)[C@H](Cc1ccc(O)cc1)NC(=O)[C@H](CC(=O)O)NC(=O)[C@H](CO)NC(=O)[C@@H](NC(=O)[C@H](Cc1ccccc1)NC(=O)[C@@H](NC(=O)CNC(=O)[C@H](CCC(=O)O)NC(=O)C(C)(C)NC(=O)[C@@H](N)Cc1ccc(O)cc1)[C@@H](C)O)[C@@H](C)O)[C@@H](C)CC)C(C)C)C(=O)N[C@@H](CC(N)=O)C(=O)N[C@@H](CCCCNC(=O)[C@@H](N)CCCCNC(=O)CC[C@H](NC(=O)CC[C@H](NC(=O)CC[C@H](NC(=O)CC[C@H](NC(=O)CC[C@H](NC(=O)CC[C@H](NC(=O)CCCCCCCCCCCCCCCCCCC(=O)O)C(=O)O)C(=O)O)C(=O)O)C(=O)O)C(=O)O)C(=O)O)C(=O)NC(C)(C)C(=O)N[C@H](C(=O)N[C@@H](CCCNC(=N)N)C(=O)N[C@@H](CCC(N)=O)C(=O)N[C@@H](CCCNC(=N)N)C(=O)N[C@@H](Cc1ccc(O)cc1)C(N)=O)[C@@H](C)O` [Compound 125, Y-Aib-E-G-T-F-T-S-D-Y-S-I-Aib-L-E-K-Q-A-Q-Aib-A-F-V-R-H-L-I-N-K(1,3)-Aib-T-R-Q-R-Y-NH2.C20DA-gGlu-gGlu-gGlu-gGlu-gGlu-gGlu-eLys(1,2)], in data set [1], the mean residence time (MRT) came to 21.2 h. Besides, the EC50 at hGIPR (setting [4]) stood at 0.4 nM; at hNPY2R (100% human plasma, read-out: hNPY2R 100% hP) it was 60.8 nM. In addition, the “Acute Food Intake 24 hours 100 nmol/kg [% CTL]” value with Normal NMRI Mice is listed as 55 % CTL. Moreover, the solubility at 2 h in data set [2] amounted to 6700 µg/mL.
